Activity calls are given as the source filed them. The calls are words filed in the database; no cut-off is given here.
Assays:
Hordeum vulgare [1] = assay: Inhibition of fatty acid synthesis in Hordeum vulgare (barley) using [14C]acetate assessed as reduction in [14C]-labeled 22C fatty acid level at 7 uM after 3 hr by liquid scintillation counting; format: functional, organism-based
Hordeum vulgare [2] = assay: Inhibition of fatty acid synthesis in Hordeum vulgare (barley) using [14C]acetate assessed as [14C]-labeled 16C fatty acid level at 7 uM after 3 hr by liquid scintillation counting (reference value: 30.6 +/- 0.2%); format: functional; design: scale not given: the % may be the effect or the level left
Cucumis sativus [3] = assay: (§1) Inhibition of fatty acid synthesis in Cucumis sativus (cucumber) assessed as inhibition of [14C]acetate incoporation in total fatty acids at 7 uM measured as total disintegration per g of fresh weight after 3 hr by liquid scintillation counting (reference value: 4.4 +/- 1 dpm x 10^6 g'1 fresh wt); format: functional
Hordeum vulgare [4] = assay: Inhibition of fatty acid synthesis in Hordeum vulgare (barley) using [14C]malonate assessed as [14C]-labeled 18C fatty acid level at 70 uM after 3 hr by liquid scintillation counting (reference value: 14.4 +/- 6.3%); format: functional; design: scale not given: the % may be the effect or the level left
Hordeum vulgare [5] = assay: Inhibition of fatty acid synthesis in Hordeum vulgare (barley) using [14C]malonate assessed as reduction in [14C]-labeled 20C fatty acid level at 70 uM after 3 hr by liquid scintillation counting relative to control; format: functional, organism-based
Hordeum vulgare [6] = assay: Inhibition of fatty acid synthesis in Hordeum vulgare (barley) using [14C]malonate assessed as reduction in [14C]-labeled 24C fatty acid level at 70 uM after 3 hr by liquid scintillation counting relative to control; format: functional, organism-based
Hordeum vulgare [7] = assay: Inhibition of fatty acid synthesis in Hordeum vulgare (barley) using [14C]acetate assessed as reduction in [14C]-labeled 24C fatty acid level at 7 uM after 3 hr by liquid scintillation counting; format: functional, organism-based
Cucumis sativus [8] = assay: Inhibition of fatty acid synthesis in Cucumis sativus (cucumber) using [14C]malonate assessed as [14C]-labeled 20C fatty acid level at 70 uM after 3 hr by liquid scintillation counting (reference value: 11.7 +/- 2%); format: functional; design: scale not given: the % may be the effect or the level left
Cucumis sativus [9] = assay: Inhibition of fatty acid synthesis in Cucumis sativus (cucumber) using [14C]malonate assessed as reduction in [14C]-labeled 24C fatty acid level at 70 uM after 3 hr by liquid scintillation counting relative to control; format: functional, organism-based
Hordeum vulgare [10] = assay: Inhibition of fatty acid synthesis in Hordeum vulgare (barley) using [14C]malonate assessed as [14C]-labeled 16C fatty acid level at 70 uM after 3 hr by liquid scintillation counting (reference value: 3.3 +/- 0.9%); format: functional; design: scale not given: the % may be the effect or the level left
Cucumis sativus [11] = assay: Inhibition of fatty acid synthesis in Cucumis sativus (cucumber) using [14C]malonate assessed as reduction in [14C]-labeled 22C fatty acid level at 70 uM after 3 hr by liquid scintillation counting relative to control; format: functional, organism-based
Cucumis sativus [12] = assay: Inhibition of fatty acid synthesis in Cucumis sativus (cucumber) using [14C]malonate assessed as [14C]-labeled 16C fatty acid level at 70 uM after 3 hr by liquid scintillation counting (reference value: 5.1 +/- 0.9%); format: functional; design: scale not given: the % may be the effect or the level left
Hordeum vulgare [13] = assay: Inhibition of fatty acid synthesis in Hordeum vulgare (barley) using [14C]acetate assessed as [14C]-labeled 20C fatty acid level at 7 uM after 3 hr by liquid scintillation counting (reference value: 2.1 +/- 0.4%); format: functional; design: scale not given: the % may be the effect or the level left
Hordeum vulgare [14] = assay: Inhibition of fatty acid synthesis in Hordeum vulgare (barley) using [14C]acetate assessed as [14C]-labeled 18C fatty acid level at 7 uM after 3 hr by liquid scintillation counting (reference value: 57 +/- 0.9%); format: functional; design: scale not given: the % may be the effect or the level left
Cucumis sativus [15] = assay: Inhibition of fatty acid synthesis in […] using [14C]acetate assessed as reduction in [14C]-labeled 22C fatty acid level at 7 uM after 3 hr by liquid scintillation counting; format: functional, organism-based
Cucumis sativus [16] = assay: Inhibition of fatty acid synthesis in Cucumis sativus (cucumber) using [14C]acetate assessed as [14C]-labeled 18C fatty acid level at 7 uM after 3 hr by liquid scintillation counting (reference value: 33.5 +/- 1.5%); format: functional; design: scale not given: the % may be the effect or the level left
Hordeum vulgare [17] = assay: Inhibition of fatty acid synthesis in Hordeum vulgare (barley) assessed as inhibition of [14C]malonate incoporation in total fatty acids at 70 uM measured as total disintegration per g of fresh weight after 3 hr by liquid scintillation counting (reference value: 5.2 +/- 0.9 dpm x 10^6 g'1 fresh wt); format: functional
Hordeum vulgare [18] = assay: Inhibition of fatty acid synthesis in Hordeum vulgare (barley) assessed as inhibition of [14C]acetate incoporation in total fatty acids at 7 uM measured as total disintegration per g of fresh weight after 3 hr by liquid scintillation counting (reference value: 5.8 +/- 1.6 dpm x 10^6 g'1 fresh wt); format: functional
Cucumis sativus [19] = assay: Inhibition of fatty acid synthesis in Cucumis sativus (cucumber) using [14C]acetate assessed as [14C]-labeled 16C fatty acid level at 7 uM after 3 hr by liquid scintillation counting (reference value: 27.6 +/- 5.1%); format: functional; design: scale not given: the % may be the effect or the level left
Hordeum vulgare [20] = assay: Inhibition of fatty acid synthesis in Hordeum vulgare (barley) using [14C]malonate assessed as reduction in [14C]-labeled 26C fatty acid level at 70 uM after 3 hr by liquid scintillation counting relative to control; format: functional, organism-based
Hordeum vulgare [21] = assay: Inhibition of fatty acid synthesis in Hordeum vulgare (barley) using [14C]malonate assessed as [14C]-labeled 22C fatty acid level at 70 uM after 3 hr by liquid scintillation counting (reference value: 34.7 +/- 2.4%); format: functional; design: scale not given: the % may be the effect or the level left
Cucumis sativus [22] = assay: Inhibition of fatty acid synthesis in Cucumis sativus (cucumber) using [14C]malonate assessed as [14C]-labeled 18C fatty acid level at 70 uM after 3 hr by liquid scintillation counting (reference value: 14.3 +/- 2%); format: functional; design: scale not given: the % may be the effect or the level left
Cucumis sativus [23] = assay: Inhibition of fatty acid synthesis in Cucumis sativus (cucumber) using [14C]acetate assessed as reduction in [14C]-labeled 20C fatty acid level at 7 uM after 3 hr by liquid scintillation counting relative to control; format: functional, organism-based
Cucumis sativus [24] = assay: as §1, with “of [14C]malonate” for “of [14C]acetate”, “at 70” for “at 7”, “value: 16.3” for “value: 4.4”, “+/- 1.1” for “+/- 1”; format: functional

## CCN(CC)C(=O)n1cnc(S(=O)(=O)c2c(C)cc(C)cc2C)n1 [CAFENSTROLE]
Hordeum vulgare [1]
  inhibition: Active
Hordeum vulgare [2]
  Activity: 32.4%
Cucumis sativus [3]
  Activity: 2.5 ×10⁶ dpm
Hordeum vulgare [4]
  Activity: 65.4%
Hordeum vulgare [5]
  inhibition: Active
Hordeum vulgare [6]
  inhibition: Active
Hordeum vulgare [7]
  inhibition: Active
Cucumis sativus [8]
  Activity: 8.4%
Cucumis sativus [9]
  inhibition: Active
Hordeum vulgare [10]
  Activity: 10%
Cucumis sativus [11]
  inhibition: Active
Cucumis sativus [12]
  Activity: 20.4%
Hordeum vulgare [13]
  Activity: 2.2%
Hordeum vulgare [14]
  Activity: 66.1%
Cucumis sativus [15]
  inhibition: Active
Cucumis sativus [16]
  Activity: 39.6%
Hordeum vulgare [17]
  Activity: 2.7 ×10⁶ dpm
Hordeum vulgare [18]
  Activity: 5.1 ×10⁶ dpm
Cucumis sativus [19]
  Activity: 60.4%
Hordeum vulgare [20]
  inhibition: Active
Hordeum vulgare [21]
  Activity: 14.7%
Cucumis sativus [22]
  Activity: 71.3%
Cucumis sativus [23]
  inhibition: Active
Cucumis sativus [24]
  Activity: 9.4 ×10⁶ dpm

— ChEMBL document CHEMBL3044779, “The action of herbicides on fatty acid biosynthesis and elongation in barley and cucumber” (Pest Manag Sci, 2010)
